Experimental data: the NIST ThermoML archive (doi:10.1016/j.jct.2012.03.008)
Numbers after ± are expanded uncertainties. Blank lines part the entries; values can stand above or below the compound they belong to.

Settings: Pendant drop shape

Structure (SMILES): CCCC[n+]1ccn(C)c1.O=S(=O)([N-]S(=O)(=O)C(F)(F)F)C(F)(F)F
surface tension liquid-gas (298.2 K): 33.35 ± 0.38 mN/m
surface tension liquid-gas (308.2 K): 32.85 ± 0.37 mN/m
surface tension liquid-gas (318.2 K): 32.25 ± 0.37 mN/m
surface tension liquid-gas (328.2 K): 31.69 ± 0.36 mN/m
surface tension liquid-gas (338.2 K): 31.14 ± 0.35 mN/m
surface tension liquid-gas (343.2 K): 30.76 ± 0.35 mN/m

surface tension liquid-gas (298.1 K): 43.81 ± 0.47 mN/m
surface tension liquid-gas (303.2 K): 43.44 ± 0.47 mN/m
surface tension liquid-gas (313.1 K): 42.72 ± 0.46 mN/m
surface tension liquid-gas (323.1 K): 42.19 ± 0.46 mN/m
surface tension liquid-gas (333.1 K): 41.61 ± 0.45 mN/m
surface tension liquid-gas (343.7 K): 41.07 ± 0.45 mN/m
Structure (SMILES): CCCCn1cc[n+](C)c1.F[P-](F)(F)(F)(F)F [1-butyl-3-methylimidazolium hexafluorophosphate]

surface tension liquid-gas (298 K): 45.44 ± 0.49 mN/m
surface tension liquid-gas (307.9 K): 44.57 ± 0.48 mN/m
surface tension liquid-gas (317.9 K): 43.91 ± 0.47 mN/m
surface tension liquid-gas (328.4 K): 43.15 ± 0.47 mN/m
surface tension liquid-gas (338.4 K): 42.49 ± 0.46 mN/m
surface tension liquid-gas (343.1 K): 42.17 ± 0.46 mN/m
Structure (SMILES): CCCCn1cc[n+](C)c1.F[B-](F)(F)F [1-butyl-3-methylimidazolium tetrafluoroborate]

surface tension liquid-gas (298.1 K): 35.86 ± 0.4 mN/m
surface tension liquid-gas (307.9 K): 35.29 ± 0.4 mN/m
surface tension liquid-gas (318 K): 34.95 ± 0.4 mN/m
surface tension liquid-gas (328.1 K): 34.64 ± 0.41 mN/m
surface tension liquid-gas (338.3 K): 34.3 ± 0.38 mN/m
Structure (SMILES): CCCCn1cc[n+](C)c1.O=S(=O)([O-])C(F)(F)F [1-butyl-3-methylimidazolium trifluoromethanesulfonate]

Structure (SMILES): CCn1cc[n+](C)c1.Cc1ccc(S(=O)(=O)[O-])cc1 [1-ethyl-3-methylimidazolium 4-methylbenzenesulfonate]
surface tension liquid-gas (308.1 K): 45.2 ± 0.6 mN/m
surface tension liquid-gas (318 K): 44.2 ± 0.6 mN/m
surface tension liquid-gas (328.5 K): 43.6 ± 0.6 mN/m
surface tension liquid-gas (338.3 K): 43 ± 0.6 mN/m
surface tension liquid-gas (343.2 K): 42.7 ± 0.6 mN/m

Structure (SMILES): CC(=O)[O-].CCn1cc[n+](C)c1 [1-ethyl-3-methylimidazolium acetate]
surface tension liquid-gas (298.1 K): 47.06 ± 0.5 mN/m
surface tension liquid-gas (308.2 K): 46.53 ± 0.5 mN/m
surface tension liquid-gas (318.2 K): 45.89 ± 0.49 mN/m
surface tension liquid-gas (328.2 K): 45.33 ± 0.48 mN/m
surface tension liquid-gas (338.3 K): 44.74 ± 0.48 mN/m

Structure (SMILES): CCn1cc[n+](C)c1.N#CN=C=[N-] [1-ethyl-3-methylimidazolium dicyanamide]
surface tension liquid-gas (298.3 K): 57.5 ± 0.8 mN/m
surface tension liquid-gas (308.2 K): 56.6 ± 1 mN/m
surface tension liquid-gas (318.3 K): 56.4 ± 0.8 mN/m
surface tension liquid-gas (328.2 K): 56 ± 0.7 mN/m
surface tension liquid-gas (338.5 K): 55 ± 0.8 mN/m
surface tension liquid-gas (343.4 K): 54.9 ± 0.8 mN/m

Structure (SMILES): CCn1cc[n+](C)c1.COP(=O)([O-])OC [1-ethyl-3-methylimidazolium dimethylphosphate]
surface tension liquid-gas (308.2 K): 45.3 ± 0.9 mN/m
surface tension liquid-gas (318 K): 44.7 ± 0.8 mN/m
surface tension liquid-gas (328.7 K): 44.4 ± 0.7 mN/m
surface tension liquid-gas (338.6 K): 43.8 ± 0.7 mN/m
surface tension liquid-gas (343.5 K): 43.3 ± 0.6 mN/m

Structure (SMILES): CCn1cc[n+](C)c1.CS(=O)(=O)[O-] [1-ethyl-3-methylimidazolium methanesulfonate]
surface tension liquid-gas (298.5 K): 50.9 ± 0.8 mN/m
surface tension liquid-gas (308 K): 50.3 ± 0.8 mN/m
surface tension liquid-gas (317.9 K): 49.7 ± 0.8 mN/m
surface tension liquid-gas (328.1 K): 49.1 ± 0.8 mN/m
surface tension liquid-gas (338.1 K): 48.1 ± 0.6 mN/m
surface tension liquid-gas (342.7 K): 47.7 ± 0.6 mN/m

Structure (SMILES): CCn1cc[n+](C)c1.CO[PH](=O)[O-] [1-ethyl-3-methylimidazolium methyl phosphonate]
surface tension liquid-gas (298.2 K): 49 ± 0.6 mN/m
surface tension liquid-gas (308.4 K): 48.3 ± 0.6 mN/m
surface tension liquid-gas (318 K): 47.9 ± 0.8 mN/m
surface tension liquid-gas (328.6 K): 47.2 ± 0.6 mN/m
surface tension liquid-gas (338.5 K): 46.7 ± 0.6 mN/m
surface tension liquid-gas (343.1 K): 46.3 ± 0.5 mN/m

Structure (SMILES): CCn1cc[n+](C)c1.N#C[S-] [1-ethyl-3-methylimidazolium thiocyanate]
surface tension liquid-gas (298.2 K): 53.3 ± 1 mN/m
surface tension liquid-gas (308.2 K): 52.3 ± 1 mN/m
surface tension liquid-gas (318.2 K): 51.8 ± 0.9 mN/m
surface tension liquid-gas (328.2 K): 50.5 ± 0.8 mN/m
surface tension liquid-gas (338.3 K): 49.8 ± 1.1 mN/m
surface tension liquid-gas (343.2 K): 49.4 ± 0.8 mN/m

Structure (SMILES): CCn1cc[n+](C)c1.O=S(=O)([O-])C(F)(F)F [1-ethyl-3-methylimidazolium trifluoromethanesulfonate]
surface tension liquid-gas (298.2 K): 41.3 ± 0.5 mN/m
surface tension liquid-gas (308.1 K): 41 ± 0.45 mN/m
surface tension liquid-gas (318.1 K): 40.48 ± 0.44 mN/m
surface tension liquid-gas (328.4 K): 39.9 ± 0.7 mN/m
surface tension liquid-gas (338.3 K): 39.5 ± 0.7 mN/m
surface tension liquid-gas (344.9 K): 39.3 ± 0.43 mN/m
